Laboratory results reported in PMC10787067, “EBF2 Links KMT2D‐Mediated H3K4me1 to Suppress Pancreatic Cancer Progression via Upregulating KLLN” (Advanced Science, 2023).

Experiments:
SW1990 cells [1] = assay: RNA-seq of GSK-LSD1-treated SW1990 cells; type: cell-based, Human; conditions: fold change > 1.5, p < 0.05, Figure 4A
Excerpt: Total RNA was isolated from cells using RNAiso plus (Takara). The quantity and integrity of RNA were separately evaluated using the K5500 (Beijing Kaiao, China) and the Agilent 2200 TapeStation (Agilent Technologies, USA). Briefly, the mRNA was enriched by OligodT NEBNext Poly(A) mRNA Magnetic Isolation Module (NEB, USA), and then fragmented into ≈200 bp. Subsequently, the RNA fragments were subjected to first and second strand cDNA synthesis, followed by adaptor ligation and enrichment according to instructions of NEBNext Ultra RNA Library Prep Kit for Illumina. The purified library products were evaluated by the Agilent 2200 TapeStation and Qubit (Thermo Fisher Scientific, USA). The libraries were sequenced by Illumina (Illumina, USA) with paired‐end 150 bp (Ribobio, China). The clean reads were acquired after discarding low‐quality reads or those containing adapter and ploy‐N. HISAT2 was employed to calibrate clean reads to human reference genome hg38 with default parameters. HTSeq was used to convert aligned short reads into read counts for each gene model. Differential gene expression was assessed by DESeq2 using read counts as input.^[ [62] ^] The Benjamini–Hochberg multiple test correction method was employed. […] RNA‐seq data sets were available (GEO accession number GSE237363).

KLLN = assay: qPCR of KLLN mRNA in SW1990 cells; type: cell-based, Human; conditions: vs negative control, p < 0.01, Student's t-test, concentration not given, Figure 4E
Method: Total RNA was extracted from cultured cells using RNAiso plus (Takara, Japan). cDNA was synthesized from every 1 µg of total RNA in reverse transcription reactions with Hifair III 1st Strand cDNA Synthesis SuperMix for qPCR (Cat No. 11 141; Yeasen, Shanghai, China). qPCR was performed with Hieff qPCR SYBR Green Master Mix (Yeasen) using a Roche LightCycler 96 Real‐Time PCR System. Cycling conditions were set at 94 °C for 15 s, 60 °C for 1 min, and 72 °C for 30 s. Each reaction was performed in triplicate. The primer sequences were as follows: KMT2D‐F: 5′‐[…]‐3′; KMT2D‐R: 5′‐[…]‐3′; EBF2‐F: 5′‐[…]‐3′; EBF2‐R: 5′‐[…]‐3′; KLLN‐F: 5′‐[…]‐3’; KLLN‐R: 5′‐[…]‐3′. β‐actin‐F: 5′‐[…]‐3′; β‐actin‐R: 5′‐[…]‐3′.

H3K4me1 [2] = assay: Western blot of H3K4me1 in SW1990 cells; type: cell-based, Human
SW1990 cells [3] = assay: Colony-formation and CCK-8 proliferation, SW1990; type: cell-based, Human; conditions: vs Vehicle, p < 0.01, Figure 5F,G
Method: (§1) Cell proliferation was determined by Cell Counting Kit‐8 (CCK‐8, Yeasen) and EdU Cell Proliferation Assay kit (Ribobio, Guangzhou, China). Colony formation was observed by staining with 0.1% crystal violet (Sangon Biotechnologies Inc., Shanghai, China). Cell migration and invasion were assessed using […] pore Transwell chambers with (for invasion assay) or without Matrigel (for migration assay). For migration assay, 5 × 10^4 SW1990 or 3 × 10^4 PANC‐1 cells were seeded into the upper chamber of the Transwell apparatus (Corning, USA) in serum‐free medium, and the medium supplemented with 10% FBS was added to the bottom chamber. For invasion assay, 10 × 10^4 SW1990 or 6 × 10^4 PANC‐1 cells were seeded into the upper Corning BioCoat Matrigel invasion chamber. After 24 h, the cells on the upper surface that had not passed through the polycarbonate filter were removed using a moistened cotton swab; the cells having migrated to the lower membrane surface were fixed in 100% methanol for 10 min, stained with 0.4% crystal violet for 15 min, and counted under a microscope (Nikon, Japan) at ×100 magnification. The cells were manually counted using Image J software. Three independent experiments were performed.

PDX tumors = assay: Patient-derived xenograft (PDX) model of PDAC; type: in vivo, Human (xenograft in immunodeficient nude mice)
Excerpt: A PDX model was established by implanting tumor fragments into immunodeficient nude mice. Tumor fragments were derived from a PDAC patient with stage II ductal adenocarcinoma, who underwent surgery at the Second Affiliated Hospital of Nanjing Medical University. Informed consent was obtained from each patient, and all procedures involving human samples were approved by the Ethics Committee of the Second Affiliated Hospital of Nanjing Medical University.

H3K4me1 [4] = assay: IHC of H3K4me1 in PDX tumors; type: in vivo, Human (xenograft in immunodeficient nude mice); conditions: vs control, Figure 5O
Method: PDAC and tumor adjacent tissues were obtained from the Second Affiliated Hospital of Nanjing Medical University. Ninety pairs of ductal adenocarcinoma and adjacent normal pancreatic tissue sections (HPanA180Su03) were obtained from Shanghai Outdo Biotech (National Human Genetic Resources Sharing Service Platform with code No. XT20‐021, Shanghai, China), under the approval by the Ethics Committee of Shanghai Outdo Biotech. IHC staining was performed on paraffin‐embedded sections of biopsies from ductal adenocarcinoma patients and controls according to standard protocols (CST). […] All pancreatic cancer tissue sections were examined by two experienced pathologists, and the EBF2, KMT2D or KLLN stained in the tissue was scored independently using the H‐score system by two pathologists blinded to the clinical data. […] For the Pearson correlation scatter plot of molecules in ductal adenocarcinoma, the H score was calculated by adding the multiplication product of the different staining intensities in category A (0–3) with the percentage of positive cells, i.e., H score (0–300 scale) = 3 × (% at 3+) + 2 × (% at 2+) + 1 × (% at 1+). […] The between‐group difference in the overall survival was evaluated by the log‐rank test. The correlation between EBF2, KMT2D, and KLLN expression in ductal adenocarcinoma was assessed via Pearson correlation analysis. […]

SW1990 cells [5] = assay: KLLN rescue experiments (CCK-8, colony-formation, Transwell), SW1990; type: cell-based, Human; conditions: p < 0.01, Figure 5Q-S
Method: as §1

Compound: c1ccc([C@@H]2C[C@H]2NC2CCNCC2)cc1 [GSK‐LSD1]
- upregulated genes overlapping between EBF2-OE and GSK-LSD1-treated cells (SW1990 cells [1]): 17
- KLLN mRNA level (KLLN): significant upregulation
- H3K4me1 level, concentration dependence (H3K4me1 [2]; 0, 1, 10, or 100 µM GSK-LSD1, Figure 5E): increased the levels of H3K4me1 and KLLN in a concentration‐dependent manner
- H3K4me1 level in Co-IP experiment (H3K4me1 [2]; vs vehicle, concentration not given, Figure 5P): increased H3K4me1 level
- proliferation (SW1990 cells [3]): significantly inhibited
- effect compared with Gemcitabine (PDX tumors; PDX mice, n = 5, doses not given, Figure 5N,O): more favorable effects than Gemcitabine
- PDX tumor size compared with control mice (PDX tumors; n = 5, dose not given, Figure 5N): remarkably smaller tumors
- H3K4me1 expression in PDX tumors (H3K4me1 [4]): significantly upregulated
- tumor-suppressive phenotype of GSK-LSD1 on knockdown of KLLN (SW1990 cells [5]): markedly attenuated
